Data taken from patent publication US8148347B2, “Inhibition of interaction of PSD93 and PSDS95 with nNOS and NMDA receptors” (The Johns Hopkins University, priority 2000, dated 2012).

Experiments:
Male Sprague-Dawley rats = test: measurement of isoflurane MAC (tail clamp); type: in vivo, rat; conditions: for MAC (isoflurane): mean ± SD
Protocol: The ODNs were dissolved in saline before administration. As described in the previous work,^49 the rats were injected intrathecally with saline (10 μl) (control), antisense ODNs (12.5, 25, 50 μg/10 μl), sense ODN (50 μg/10 μl) and missense ODN (50 μg/10 μl), respectively, followed by an injection of 10 μl of saline to flush the catheter, every 24 h for 4 days.
On the fifth day after saline or ODNs injection, each rat was placed in a clear plastic cone and anesthetized with 5% isoflurane in oxygen for three to five minutes. After tracheostomy, the trachea of each animal was intubated with a 16-gauge polyethylene catheter. The inspired isoflurane concentration was reduced to 2%, and the animals breathed spontaneously until cannulation of a carotid artery and a jugular vein with PE-50 tubing was accomplished. The isoflurane concentration was decreased further to 1.5%, and ventilation was controlled by a Harvard Animal Respirator (Harvard Apparatus, South Natick, Mass.) adjusted according to the measurement of arterial blood gases to maintain normal partial pressure of oxygen (PO2=91-94 mmHg), partial pressure of carbon dioxide (PCO2=33-41 mmHg) and pH (7.4-7.44). Electrocardiography and systolic and diastolic blood pressure were monitored using a Grass Polygraph (Astroumed Grass, Quincy, Mass.) and Gould Pressure Transducer (Gould, Cleveland, Ohio). Rectal temperature was maintained between 36.5 and 37.5° C. by use of a heating blanket and warming lights.
A PE-10 catheter was introduced through and beyond the endotracheal tube until obstruction to passage was met and then withdrawn 1 to 2 mm. For isoflurane MAC measurement, the PE-10 catheter was connected to a parameter airway gas monitor (Datex-Engstrom, Inc., Tewksbury, Mass.). After stabilizing about 30 minutes, MAC was measured according to the methods described previously^34 using a long hemostat (8-inch Rochester Dean Hemostatic Forceps) clamped to the first ratchet lock on the tail for 1 min. The tail was always stimulated proximal to a previous test site. Gross movement of the head, extremities, or body was taken as a positive test result, whereas grimacing, swallowing, chewing, or tail flick were considered negative results. The isoflurane concentration was reduced in decrements of 0.12 to 0.15% until the negative response became positive, with 12-15 min equilibration allowed after changes in concentration.^50,51 The MAC was considered to be the concentration midway between the highest concentration that permitted movement in response to the stimulus and the lowest concentration that prevented movement. Finally, intrathecal PE-10 catheter position from each animal was confirmed.
In some saline-treated rats, after initial baseline MAC determination, NMDA at the dose of 1.25 μg^38 or saline was injected intrathecally in a volume of 10 μl saline, followed by an injection of 10 μl saline to flush the catheter. Fresh NMDA solution was prepared for each experiment. […] At this isoflurane concentration, 10 min after the intrathecal injection of NMDA, the animals were tested again for reactivity to tail clamp. The concentration of isoflurane was increased, and response to tail clamp was checked every 12-15 min thereafter until a negative response was achieved. In some antisense ODN (50 μg)-treated rats, after initial MAC determination, NMDA or saline was also administered intrathecally. The MAC for isoflurane was again determined following the aforementioned procedures.

c-fos = c-fos immunohistochemistry in lumbar spinal cord after formalin; type: in vivo, rat
Protocol: All of the experiments were carried out with the approval of the Animal Care Committee at the Johns Hopkins University. Thirty-eight male Sprague-Dawley rats (250-300 g, Hilltop Laboratory Animals, Scottsdale, Pa., USA) were implanted with an intrathecal PE-10 catheter at the rostral level of the spinal cord lumbar enlargement according to the method described by Yaksh and Rudy. After 4 to 7 days of recovery, they were intrathecally injected with one of the following agents every 24 hours for 4 consecutive days: saline (10 μl, n=6), PSD-95 antisense oligodeoxynucleotide (ODN) (12.5 μg/10 μl, n=6; 25 μg/10 μl, n=6; 50 μg/10 μl, n=6), sense ODN (50 μg/10 μl, n=5) or missense ODN (50 μg/10 μl, n=9). On the fifth day, formalin (4%, 100 μl) was injected into one of the hindpaws. The number of flinches and shakes of the injected paw was assessed for 1 hour. The observational session was divided into phasic (0-10 min) and tonic (10-60 min) periods. Rats were sacrificed two hours after formalin injection and their lumbar spinal cords were harvested for c-fos immunohistochemistry.

rats = test: rat neuropathic pain model, unilateral L5 spinal nerve ligation, hind paw withdrawal; type: in vivo; conditions: 50 μg/10 μl intrathecal every 24 h for 4 days
Protocol: The effect of the deficiency of PSD-95/SAP90 on mechanical and thermal hyperalgesia in a rat neuropathic pain model was observed. The antisense oligonucleotide (OND) specifically against PSD-95/SAP90 was employed to reduce the expression of PSD-95/SAP90 in spinal cord. The rats were injected intrathecally with saline (10 μl), antisense OND (50 μg/10 μl) or sense OND (50 μg/10 μl) every 24 h for 4 days. The unilateral L5 spinal nerve was ligated. Hind paw withdrawal response to mechanical or heat stimuli was conducted 1 day prior to the surgery and at 3, 5, 7 and 9 days postoperatively. In the saline-treated group, mechanical and thermal hyperalgesia developed within 3 days and persisted for 9 days or longer. […] PSD-95/SAP90 is likely involved in the molecular mechanism of the production of hyperalgesia in neuropathic pain triggered via NMDA receptor activation.

[1] = 50 μg intrathecal every 24 h for 4 days

| Substance | change of the value for isoflurane MAC compared to the control group (Male Sprague-Dawley rats; 50 μg intrathecal) | MAC (isoflurane) (Male Sprague-Dawley rats; [1]) | decrease from isoflurane control MAC (Male Sprague-Dawley rats; 12.5 μg) | MAC (isoflurane) (Male Sprague-Dawley rats; 12.5 μg intrathecal every 24 h for 4 days) | decrease from isoflurane control MAC (Male Sprague-Dawley rats; 25 μg) | MAC (isoflurane) (Male Sprague-Dawley rats; 25 μg intrathecal every 24 h for 4 days) | decrease from isoflurane control MAC (Male Sprague-Dawley rats; 50 μg) | increase in isoflurane MAC after NMDA compared to 50 μg antisense ODN alone (Male Sprague-Dawley rats; pretreated with 50 μg antisense ODN, intrathecal NMDA 1.25 μg) | decrease of the number of Fos-like immunoreactive neurons per section (c-fos; 50 μg intrathecal) | changes in the number of Fos-like immunoreactive neurons vs saline-treated group (c-fos; 12.5 and 25 μg) | onset of the mechanical hyperalgesia (rats) | onset of the thermal hyperalgesia (rats) |
| --- | --- | --- | --- | --- | --- | --- | --- | --- | --- | --- | --- | --- |
| 5′-AAGCCCTTGTTCCCATTT-3′ (DNA, backbone and methylation of C not given here; listed as Rattus rattus) [MS, missense OND control, reference compound] | did not significantly change | 1.13 ± 0.15 | – | – | – | – | – | – | – | – | – | – |
| 5′-TGTGATCTCCTCATACTC-3′ (DNA, backbone and methylation of C not given here; listed as Rattus rattus) [antisense oligonucletide corresponding to the PDZ domain nucleotides 241 to 258 of rat PSD-95/SAP90 mRNA] | – | 0.72 ± 0.05 | 1% | 1.15 ± 0.18 | 18% | 0.98 ± 0.14 | 44% | did not result in a significant increase | 48% | failed to produce significant changes | significant delay | significant delay |
